Source: a melting point compilation (Tetko et al.; mined from patent text by program, amines drawn as free bases though some values may be those of a salt)
Non-standard residues stand in square brackets, D forms with d. Residues, ends and D or L forms follow the SMILES beside them. *: point of attachment. Tos = Cc1ccc(S(=O)(=O)*)cc1; OBn = c1ccc(CO*)cc1; Sar = CNCC(=O)O

SMILES	melting point [°C]
CC(C)c1onc(-c2c(Cl)cccc2Cl)c1COc1ccc(N(C)Cc2ccc(C(=O)O)cc2)c(C(F)(F)F)n1	96.1 to 97.1
O=C(O)Cc1ccc2ccn(Cc3ccccc3)c2c1	109 to 111
CN[C@@H](CC(C)C)C(=O)O	101 to 103
Cc1cccc(C(=O)O)c1Cl	141 to 142
CC(C)C(=O)N(CCCCCC(=O)O)C(c1ccccc1)c1ccccc1	106 to 107
CCOC(=O)c1ccc(CN2C(=O)c3ccccc3C2=O)o1	108 to 109
CC(C)CC(=O)Nc1cccc(-c2ccnc3c(-c4cc(Cl)cc(Cl)c4)cnn23)c1	223 to 225
CC(C(N)=O)c1ccc2c(c1)Sc1ncccc1CC2=O (stereo unspecified)	161 to 162
O=C1CSc2cccc(Cl)c2N1	160 to 161
Cn1c(=O)[nH]c2cc(Cl)cc(Cl)c2c1=O	247 to 250
Cc1[nH]c(-c2ccccc2)c(N)c1C(=O)C(C)C	180 to 183
O=C(/C=C/C=C/c1ccc(Cl)cc1)NCCCC(=O)NO	164 to 166
CNCCn1nc2c3c(c(NCCNCCO)ccc31)C(=O)c1c(OCc3ccccc3)ccc(OCc3ccccc3)c1-2	186 to 189
OC1(c2ccc(F)cc2)Cc2ccccc2C2=NCCN21 (stereo unspecified)	150 to 151
COC(=O)C1=C(Cl)C(=NO)CC(c2ccc(Cl)c(OC)c2F)N1 (stereo unspecified)	174 to 176
O=C(O)C(=O)c1ccc(S(=O)CCOc2ccc3ccccc3c2)cc1 (stereo unspecified)	157 to 158
O=C1CCC(c2ccccc2)(c2ccccc2)C2CN(C(Cc3ccccc3)=NCc3ccccc3Cl)CC12 (stereo unspecified)	192
C[C@H](O)[C@H](CO)N(Cc1ccc(C#N)cc1)S(=O)(=O)c1ccc(Cl)cc1	124 to 126
C1=C(c2cc3ccccc3[nH]2)Cc2ccccc21	273 to 274
CCOC(=O)c1cc(CC)sc1Nc1cc(F)ccc1[N+](=O)[O-]	87 to 88
Cc1ccc(CN2C(=O)C(CCO)Oc3ccccc32)cc1 (stereo unspecified)	92 to 94
O=C(O)c1cccc(-c2cccc(OCc3ccc(Cl)cc3Cl)n2)c1	186 to 187
CCOC(=O)N1CCC(NC2(c3ccccc3Cl)C(=O)Nc3ccc(Cl)cc32)CC1 (stereo unspecified)	204
CSc1sc(C(=O)N(C)C2CCCCC2)c2c1-c1oncc1C(C)(C)C2	150 to 153
N#Cc1cnc2cc(Br)ccc2c1Nc1ccc(Cl)cc1Cl	180 to 183
CCc1nn(CCOc2ccc(CC3SC(=O)NC3=O)cc2)c(=O)c2ccccc12 (stereo unspecified)	174

SMILES	melting point [°C]
Cc1ccc(S(=O)(=O)N(C)CC(=O)N[C@@H](Cc2ccccc2)C(=O)OCc2ccccc2)cc1 (Tos-[Sar]-Phe-OBn)	80 to 82
NC(=O)c1[nH]nnc1O	191 to 192
CC(C)(C)OC(=O)CCC1CCC(N)CC1 (stereo unspecified)	39 to 40
CN(Cc1cc2ccccc2n1C)C(=O)/C=C/c1ccc(N2C(=O)CCC2=O)nc1	185 to 187
Cc1onc(-c2c(F)cccc2Cl)c1-c1csc(N)n1	148 to 149
CCc1ccc(-c2ccc(C(=O)Nc3ccc4cc(CN5CCCC5)cnc4c3C)c(F)c2)cc1	178 to 179
C[C@@H]1CCCN1CCCOc1ccc2c(c1)CCc1cc(=O)[nH]nc1-2	289 to 292
CCCC(=O)NCCN1CCOc2ccc(OC)cc21	73 to 74
O=[N+]([O-])c1ccc(OS(=O)(=O)c2cccnc2Cl)cc1	127 to 128
COC(=O)COc1cc2c(c3c1cc(C)n3Cc1ccccc1)CCC2	135 to 138
O=C1CCC(N2C(=O)c3cccc(CNC(=O)c4cncnc4)c3C2=O)C(=O)N1 (stereo unspecified)	> 260
CN1CCN(c2cc(Cl)cc3c2c(=O)n(Cc2cccc(Cl)c2)c(=O)n3Cc2ccccc2)CC1	165 to 169
Cc1ccc2c(c1)c1cc(-c3ccc(OCC#N)cc3)c(=O)n(C)c1n2C	195 to 196
COCCSNS(=O)(=O)c1ccccc1	119 to 121
O=C(NCCO)c1ccc(-c2nn(Cc3ccccc3)c3ccccc23)o1	119 to 127
N#Cc1ccc(OCCCCCCOc2cccc(-c3cc4cc(C#N)ccc4o3)c2)cc1	134 to 136
CC(C)=NOCC(=O)O	76
CC(C)(N)CSCCO	49 to 51
COc1cc2nc(SCc3cc(N(C)C)c(Cl)cn3)[nH]c2cc1OC	116 to 117
COc1cccc(C(O)(Cc2ccncc2)c2cccc(OC)c2)c1	134 to 135
O=C1Nc2cccc(Cl)c2C12COc1cc3c(cc12)CCO3 (stereo unspecified)	> 200
CC(C)(C)c1ccc(C2(C(N)=O)CC2)cc1	178 to 180
COC(=O)C(C)Oc1ccc(NC(=O)CCCCCO)cc1 (stereo unspecified)	62 to 64.5
Cc1ccc(-c2ccccc2C(=O)Nc2ccc(C(=O)N3C[C@H]4CCCN4c4ccccc43)cc2)cc1	228 to 230
O=C1CCc2c(-c3ccncc3)sc(-c3cccnc3)c21	214 to 216
COC(=O)c1ccc(-c2nc(-c3cc(C)oc3C)cs2)cc1	103 to 105

SMILES	melting point [°C]
COc1ccc(CCN(C)CCCCc2ccc(NC(=O)c3cccc4c(=O)c5cccc(OC)c5[nH]c34)cc2)cc1OC	170
CCSCC(=O)Nc1c(C)cccc1C	96 to 98
O=[N+]([O-])c1cccc(-c2coc3ccccc23)c1	86 to 86.5
CC(=O)c1c(-c2ccncc2)sc(Cl)c1C	60 to 61
N#Cc1ccc(NC(=O)c2ccccc2SSc2ccccc2C(=O)Nc2ccc(C#N)cc2)cc1	239 to 241
O=C(Nc1c(F)cc(F)cc1F)N(Cc1ccc2c(c1)Cc1ccccc1-2)C1CCCCC1	162 to 165
Clc1ccc(C=NCCN=Cc2ccc(Cl)nc2)cn1	170
Clc1ccc(N2CCN(Cc3n[nH]c4ccccc34)CC2)nc1	203 to 204
COc1c(C2CCN(CCCCNC(=O)c3ccc(-c4ccc(NC(=O)C(F)(F)F)cc4)cc3)CC2)ccc2c1CCCC2	226 to 228
O=C(CCc1ccccc1)Nc1ccc(C(=O)NN=C2C(=O)Nc3ccc(I)cc32)cc1	297
CCOC(=O)CC(=O)Nc1ccc([N+](=O)[O-])cc1	102 to 103
O=c1[nH]c(=O)n(C2CC(O)C(CF)O2)cc1C=CBr (stereo unspecified)	208
CCOC(=O)c1cc(=O)c2c(C(C)C)cccc2[nH]1	176 to 178
CNc1ncnc2c1ncn2C1OC(CO)C(OC)C1(C)O (stereo unspecified)	165
c1ccc(CCNc2nc3ccccc3c3[nH]c(C4CCCC4)nc23)cc1	95 to 97
CC(O)c1nn(Cc2ccccc2)c(=O)o1 (stereo unspecified)	70
CCC(OCc1ccc(-c2ccc(Cl)cc2)cc1)(C(=O)O)c1ccccc1 (stereo unspecified)	128 to 130
CCCc1cccc(N(CC(=O)OC)NC(=O)NC)c1	76 to 77
CCN(CC)CCOc1ccc2cc3ccc(OCCN(CC)CC)c([N+](=O)[O-])c3nc2c1[N+](=O)[O-]	138 to 140
CC(C)(C)OC(=O)NC1CC2CCCC(C1)N2Cc1ccccc1 (stereo unspecified)	154 to 155
N#Cc1nn(-c2c(Cl)cc(C(F)(F)F)cc2Cl)c(N)c1SC(F)(F)C(F)(F)F	134 to 136
CCCCOC(=O)C(CC(C)C)NC(=O)c1cc([N+](=O)[O-])cc([N+](=O)[O-])c1 (stereo unspecified)	95 to 98
CCN(CC=C(Cl)Cl)C(=O)Nc1ccc(Cl)c(Cl)c1	105 to 106
CC(NC(=O)Cc1cc(F)cc(F)c1)C(=O)NC1C(=O)N(C)C(c2ccccc2)c2ccccc21 (stereo unspecified)	115
CCOC(=O)c1nnc(SC)nc1NCc1ccc(OC)c(Cl)c1	101 to 105
CCOC(=O)CSc1cc(Cl)nc(Nc2cccc(C)c2C)n1	114 to 116

SMILES	melting point [°C]
COCC(=O)N(C)c1ccc(NC(=O)[C@H]2C[C@@H](O)CN2C(=O)Nc2ccc(Cl)cc2)cc1	84
CC(=O)NC(C(=O)NCc1ccccc1)c1cn(S(=O)(=O)N(C)C)cn1 (stereo unspecified)	145 to 147
COc1ccc(CC2(C(=O)N[C@@H](Cc3ccc(NC(=O)c4c(Cl)cccc4Cl)cc3)C(=O)O)CCCCC2)cc1	136 to 140
O=C(Nc1nc2ccccc2s1)c1cn(-c2ccccc2)c2ccccc2c1=O	295 to 297
N#Cc1cc(-c2cccs2)[nH]c1-c1cccs1	202 to 204
CC(C)(C)c1ccc(-c2cc(-c3cccs3)[nH]n2)cc1	61 to 65
CCn1c(=O)[nH]c(=O)c2nc(-c3ccc(/C=C/C(=O)O)cc3)[nH]c21	> 300
O=C(Cl)c1sc2ccc(Oc3ccccc3)cc2c1Cl	117 to 119
CC(C)Nc1nc(-n2cc(C(=O)O)c(=O)c3cc(F)c(N4CC(N)C4)c(Cl)c32)c(F)cc1F	220 to 223
CN1CN(C)C(=S)N(c2ccccc2)C1	85 to 87
CNC(=O)[C@H]1O[C@@H](n2cnc3c(NCc4cc(Cl)ccc4OCC4OC(O)C(O)C(O)C4O)ncnc32)[C@H](O)[C@@H]1N (stereo partly specified)	212 to 218
N#Cc1c(NCCCn2ccnc2)cccc1Oc1ccc(-c2cn(C3CCOC3)c3ncnc(N)c23)cc1 (stereo unspecified)	110
O=C(O)c1ccc([N+](=O)[O-])cc1C(F)(F)F	128 to 129
Cc1nn(-c2ccc(C(F)(F)F)cn2)cc1COc1ccc(OC(C)(C)C(=O)O)cc1	106 to 107
COC(=O)c1ccccc1-n1c(CCl)nc2ccc(F)cc2c1=O	213 to 215
Cc1cc(=O)oc2nn(Cc3cccs3)c(C)c12	164 to 167
Cc1cc2c(c(Sc3ccc(Cl)cc3)n1)C(=O)N(CC1Cc3c(sc(N)c3C(=O)OC(C)(C)C)CO1)C2=O (stereo unspecified)	118 to 119
CCCOCCCCOCCCCCCNCC(O)c1cc(Cl)c(N)c(Cl)c1 (stereo unspecified)	51 to 53
CCOC(=O)c1ccc(N)cc1F	110 to 112
O=[N+]([O-])C(=Cc1ccco1)C1=NCCN1Cc1ccc(Cl)nc1	157 to 162
O=C(O)C(CC1CCCC1)c1ccc(S(=O)(=O)C(F)(F)F)cc1 (stereo unspecified)	143 to 145
CC(=O)N1CCN(c2ccc(Nc3nccc(-c4sc(-c5cccs5)nc4C)n3)cc2)CC1	134 to 136
CCOC(=O)N1CCC(n2ccc3ccccc32)CC1	127
